{
  "source": "patent US9556155B2",
  "about": "“Methods of treating fatty liver disease” (Genzyme Corporation, priority 2006, dated 2017)",
  "assay_type_in_all_cases": "in vivo",
  "key": {"ob/ob mice": {"system": "ob/ob mice", "experiment": "Liver weight and body weight in ob/ob mice", "description": "FIG. 6 is a graph comparing the liver weight to body weight ratios of ob/ob mice treated with water, ob/ob mice treated with Formula X, and lean mice treated with water after 6 weeks of treatment.\nMale ob/ob mice were obtained from the Jackson Laboratories (Bar Harbor, Me.). These mice, being deficient in leptin, are hyperphagic and rapidly become obese. Severe hepatic steatosis is a characteristic of this model. Beginning at 7 weeks of age the mice were treated with Formula X by daily oral gavage (dosed 2× per day at 60 mg/kg/dose or 120 mg/kg/day). […] After 6 weeks of treatment, the animals were sacrificed and the livers dissected and weighed. In the placebo treated ob/ob mice, the liver weight to body weight ratio was higher than in lean animals (FIG. 6). […] N=6-8 mice per group."}, "[1]": {"system": "hepatic genes involved in lipogenesis, gluconeogenesis, inflammation, and fibrosis", "experiment": "Quantitative RT-PCR of hepatic genes in ob/ob mice", "details": "120 mg/kg/day oral gavage, 6 weeks, vs placebo", "from_the_text": "FIGS. 7A-G are a series of graphs comparing the expression of hepatic genes involved in lipogenesis, gluconeogenesis, inflammation, and fibrosis in ob/ob mice treated with water, ob/ob mice treated with Formula X, and lean mice treated with water after 6 weeks of treatment. In FIG. 7A, lower levels of sterol regulatory element binding protein 1c (SREBP-1c) RNA are observed in the drug-treated versus placebo-treated control animals. In FIG. 7B, lower levels of acid citrate lyase 1 (ACL1) are observed in the drug-treated versus placebo-treated control animals. In FIG. 7C, lower levels of acetyl coenzyme A carboxylase 1 (ACC1) are observed in the drug-treated versus placebo-treated control animals. In FIG. 7D, lower levels of fatty acid synthase (FAS) are observed in the drug-treated versus placebo-treated control animals. In FIG. 7E, lower levels of tumor necrosis factor 1 alpha (TNF-α) are observed in the drug-treated versus placebo-treated control animals. In FIG. 7F, lower levels of glucose 6-phosphatase (G6P) are observed in the drug-treated versus placebo-treated control animals. In FIG. 7G, lower levels of procollagen type 1 (collagen) are observed in the drug-treated versus placebo-treated control animals. Thus, treatment with Formula X reduced the expression of genes involved in lipogenesis (SREBP-1c, ACL1, ACC1, FAS), gluconeogenesis (G6P), inflammation (TNF-α), and fibrosis.\nThe ob/ob mice, beginning at 7 weeks of age, were treated with Formula X by daily oral gavage (dosed 2× per day at 60 mg/kg/dose, or 120 mg/kg/day) for 6 weeks. The mice were sacrificed and total RNA was purified from the livers for quantitative RT-PCR (FIG. 7) of sterol regulatory element binding protein 1c (SREBP-1c), acid citrate lyase 1 (ACL1), acetyl coenzyme A carboxylase 1 (ACC1), fatty acid synthase (FAS), tumor necrosis factor 1 alpha (TNF-α), glucose 6-phosphatase (G6P), and procollagen type 1 (collagen)."}, "DIO mice [2]": {"system": "DIO mice", "experiment": "Liver weight and body weight in DIO mice", "description": "FIG. 4 is a graph comparing the liver weight to body weight ratios of DIO mice treated with water, DIO mice treated with Formula XI, and lean mice treated with water after 9 and 17 weeks of treatment.\nDIO mice were generated as described in Example 1. Mice were maintained on the high-fat diet for an additional 23 weeks (total time on diet 31 weeks). The mice were then treated with Formula XI by daily oral gavage (125 mg/kg/day). […] After 9 and 17 weeks of treatment, groups of animals were sacrificed and the livers dissected and weighed. In the DIO mice, the liver weight to body weight ratio was higher than in lean animals."}, "[3]": {"system": "diet-induced obese (DIO) C57BL/6 mice", "experiment": "Hepatic steatosis in DIO mice, hematoxylin and eosin stained liver sections", "details": "125 mg/kg daily oral gavage, 10 weeks, vs water control", "description": "FIGS. 2A-2C are a series of photographs comparing hematoxylin and eosin stained liver sections of (A) diet-induced obese (DIO) C57BL/6 mice treated with water (control), (B) DIO mice treated with D-threo-1-(3′,4′-ethylenedioxy)phenyl-2-octanoylamino-3-pyrrolidino-1-propanol (Formula XI), and (C) lean mice treated with water (control). Mice were treated by daily oral gavage for 10 weeks and then sacrificed. In FIG. 1A, large vacuoles are visible throughout the parenchyma of the livers from the water-treated control mice. […] In FIG. 1C, the livers of normal, lean mice are devoid of any lipid-filled vacuoles.\nDiet-induced obese (DIO) mice were first generated by placing C57BL/6 mice on a high-fat (45% of kcal) diet (D12451, Research Diets, Inc., New Brunswick, N.J.) for 8 weeks. Obese mice that had elevated glucose and insulin levels were selected and then treated with Formula XI by daily oral gavage (125 mg/kg) or with water as a control. After 10 weeks of treatment, the livers were harvested, sectioned, and stained with hematoxylin and eosin. Large vacuoles were visible throughout the parenchyma of the livers from the water control mice (FIGS. 2A-2C). These vacuoles contain neutral lipid by Oil Red O staining of the liver sections."}, "DIO mice [4]": {"system": "DIO mice", "experiment": "Markers of liver toxicity in blood of DIO mice", "details": "125 mg/kg/day oral gavage, 9 weeks, vs placebo", "from_the_text": "FIGS. 5A-5D are a series of graphs comparing the levels of liver enzymes in DIO mice treated with water and DIO mice treated with Formula XI for 9 weeks. In FIG. 1A, lower levels of alanine aminotransferase (ALT) are observed in the drug-treated versus placebo-treated control animals. In FIG. 1B, lower levels of aspartate aminotransferase (AST) are observed in the drug-treated versus placebo-treated control animals. In FIG. 1C, lower levels of alkaline phosphatase are observed in the drug-treated versus placebo-treated control animals. In FIG. 1D, lower levels of γ-glutamyltransferase (GGT) are observed in the drug-treated versus placebo-treated control animals.\nDIO mice were generated as described in Example 1. Mice were maintained on the high-fat diet for an additional 23 weeks (total time on diet 31 weeks). The mice were then treated with Formula XI by daily oral gavage (125 mg/kg/day). Blood was collected after 9 weeks of treatment and markers of liver toxicity were analyzed (IDEXX Laboratories, West Sacramento, Calif.). Lower levels of alanine aminotransferase (ALT), aspartate aminotransferase (AST), alkaline phosphatase, and gamma-glutamyltransferase (GGT) were found in the drug-treated versus placebo-treated control animals (FIGS. 5A-5D)."}, "DIO mice [5]": {"system": "DIO mice", "experiment": "Liver triglyceride levels in DIO mice (hepatic lipid extracts)", "details": "75 or 125 mg/kg daily oral gavage, 16 weeks, vs water control", "description": "FIG. 3 is a graph comparing the mean levels of liver triglycerides in DIO mice treated with water, DIO mice treated with 75 mg/kg Formula XI, DIO mice treated with 125 mg/kg Formula XI, and lean mice treated with water. Mice were treated by daily oral gavage for 16 weeks and then euthanized. The livers were harvested and homogenized. Triglyceride levels were measured in hepatic lipid extracts.\nDIO mice were generated as described in Example 1 and then treated with Formula XI by daily oral gavage at a dose of 75 or 125 mg/kg. Mice gavaged with water served as the control. After 16 weeks of treatment the livers were harvested and homogenized. The lipids were extracted with methanol:chloroform (4.3:3 v/v) and CaCI2. The extracted lipids were dried and dissolved in dimethylsulfoxide (DMSO). Triglycerides were measured using the Serum Triglyceride Determination kit (Sigma-Aldrich, St. Louis, Mo.) according to the protocol supplied by the manufacturer."}},
  "data": [
    {"smiles": "CCCCCCCCC(=O)NC(CN1CCCC1)C(O)c1ccc2c(c1)OCCO2", "note": "(stereo not shown) [Formula X, 1-(1,4-benzodioxan-6-yl)-2-nonanoylamino-3-pyrrolidino-1-propanol]", "values": [
      {"measurement": "liver weights", "setting": "ob/ob mice; 120 mg/kg/day oral gavage, 6 weeks", "value": "significantly reduced"},
      {"measurement": "liver weight to body weight ratio", "setting": "ob/ob mice; 6 weeks of treatment, vs water", "value": "reduction"},
      {"measurement": "acetyl coenzyme A carboxylase 1 (ACC1) expression in liver", "setting": "[1]", "value": "lower levels"},
      {"measurement": "acid citrate lyase 1 (ACL1) expression in liver", "setting": "[1]", "value": "lower levels"},
      {"measurement": "fatty acid synthase (FAS) expression in liver", "setting": "[1]", "value": "lower levels"},
      {"measurement": "glucose 6-phosphatase (G6P) expression in liver", "setting": "[1]", "value": "lower levels"},
      {"measurement": "procollagen type 1 (collagen) expression in liver", "setting": "[1]", "value": "lower levels"},
      {"measurement": "sterol regulatory element binding protein 1c (SREBP-1c) RNA level in liver", "setting": "[1]", "value": "lower levels"},
      {"measurement": "tumor necrosis factor 1 alpha (TNF-α) expression in liver", "setting": "[1]", "value": "lower levels"}
    ]},
    {"smiles": "CCCCCCCC(=O)NC(CN1CCCC1)C(O)c1ccc2c(c1)OCCO2", "note": "(stereo not shown) [Formula XI, 1-(1,4-benzodioxan-6-yl)-2-octanoylamino-3-pyrrolidino-1-propanol]", "values": [
      {"measurement": "liver weights", "setting": "DIO mice [2]; 125 mg/kg/day oral gavage, 9 and 17 weeks", "value": "significantly reduced"},
      {"measurement": "liver/body weight ratio", "setting": "DIO mice [2]; 125 mg/kg/day oral gavage, after 17 weeks, vs lean group", "value": "comparable to that of the lean group"},
      {"measurement": "liver weight to body weight ratio", "setting": "DIO mice [2]; 9 and 17 weeks of treatment, vs water", "value": "reduction"},
      {"measurement": "size of liver vacuoles", "setting": "[3]", "value": "appreciably smaller"},
      {"measurement": "vacuoles visible in the livers (neutral lipid)", "setting": "[3]", "value": "significantly fewer vacuoles"},
      {"measurement": "alanine aminotransferase (ALT) level", "setting": "DIO mice [4]", "value": "Lower levels"},
      {"measurement": "alkaline phosphatase level", "setting": "DIO mice [4]", "value": "Lower levels"},
      {"measurement": "aspartate aminotransferase (AST) level", "setting": "DIO mice [4]", "value": "Lower levels"},
      {"measurement": "gamma-glutamyltransferase (GGT) level", "setting": "DIO mice [4]", "value": "Lower levels"},
      {"measurement": "total triglyceride levels in the liver", "setting": "DIO mice [5]", "value": "dose-dependent reduction"}
    ]}
  ]
}
